From paper PMC6934184, “Selective DNA-PKcs inhibition extends the therapeutic index of localized radiotherapy and chemotherapy” (The Journal of Clinical Investigation, 2019)

Biological target: T1, MAPK13 (p38 delta) (Homo sapiens, UniProt O15264)
T1 construct: purchased Thermo Fisher Scientific (Life Technologies) SelectScreen
Experiment: SelectScreen Z'LYTE
Assay type: biochemical
In short: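 Percent values come from Thermo SelectScreen profiling of NU5455, combining activity and binding assays. CSF1R was run in Z'LYTE format at Km app ATP, and CAMK1 in Adapta format with ATP listed at 10.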

T1 sequence (O15264 whole entry): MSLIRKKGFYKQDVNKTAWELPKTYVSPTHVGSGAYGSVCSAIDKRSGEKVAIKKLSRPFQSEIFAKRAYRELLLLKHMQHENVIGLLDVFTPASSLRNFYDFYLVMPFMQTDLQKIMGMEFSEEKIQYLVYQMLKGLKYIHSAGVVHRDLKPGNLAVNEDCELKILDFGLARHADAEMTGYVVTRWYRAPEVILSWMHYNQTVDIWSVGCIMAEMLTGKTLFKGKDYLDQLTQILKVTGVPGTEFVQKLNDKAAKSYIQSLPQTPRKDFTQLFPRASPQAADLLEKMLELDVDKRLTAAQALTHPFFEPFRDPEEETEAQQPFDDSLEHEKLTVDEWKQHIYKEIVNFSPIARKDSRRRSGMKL

CN(C(=O)CN1CCOCC1)c1ccc2sc3c(-c4cccc5c(=O)cc(N6CC7CCC(C6)O7)oc45)cccc3c2c1 [NU5455]
inhibition at 1 µM: 5.8%
